Values of other authors, collected in patent US20110178167A1, “METHOD FOR INHIBITING ACTIVITY AND/OR EXPRESSION OF MATRIX METALLOPROTEINASE, INHIBITING PHOSPHORYLATION OF MITOGEN-ACTIVATED PROTEIN KINASE, AND/OR PROMOTING EXPRESSION OF COLLAGEN USING TERMINALIA CATAPPA LEAF EXTRACT” (priority 2010, published 2011).

Test system: matrix metalloproteinase-1
Conditions: related art

SMILES | expression of matrix metalloproteinase-1
C[C@@H]1CC[C@]2(C(=O)O[C@@H]3O[C@H](CO)[C@@H](O)[C@H](O)[C@H]3O)CC[C@]3(C)C(=CC[C@@H]4[C@@]5(C)CC[C@H](O[C@@H]6OC[C@H](O)[C@H](O)[C@H]6O)C(C)(C)[C@@H]5CC[C@]43C)[C@@H]2[C@]1(C)O [ziyuglycoside-I] | inhibited
O=c1cc(-c2ccc(O)c(-c3c(O)c(O)c(O)c4c(=O)cc(-c5ccc(O)cc5)oc34)c2)oc2cc(O)cc(O)c12 [sumaflavone] | inhibited
